Results reported in BigSolDB 2.1.

In the case of CC(CCC(=O)O)(c1ccc(O)cc1)c1ccc(O)cc1, the solubility (mole fraction) (in acetone, 288.15 K) is reported as 0.125, the solubility (mole fraction) (in acetone, 291.15 K) is reported as 0.127 and the solubility (mole fraction) (in acetone, 294.15 K) is reported as 0.13. The solubility (mole fraction) (in acetone, 297.15 K) was 0.134, the solubility (mole fraction) (in acetone, 300.15 K) was 0.137 and the solubility (mole fraction) (in acetone, 303.15 K) was 0.14. For the same compound, the solubility (mole fraction) (in acetone, 306.15 K) was 0.143, the solubility (mole fraction) (in acetone, 309.15 K) was 0.146 and the solubility (mole fraction) (in acetone, 312.15 K) was 0.15. The solubility (mole fraction) (in acetone, 315.15 K) was 0.153, the solubility (mole fraction) (in acetone, 318.15 K) was 0.157 and the solubility (mole fraction) (in acetonitrile, 288.15 K) was 0.00804. For the same compound, the solubility (mole fraction) (in acetonitrile, 291.15 K) was 0.00871, the solubility (mole fraction) (in acetonitrile, 294.15 K) was 0.00973 and the solubility (mole fraction) (in acetonitrile, 297.15 K) was 0.0106. For the same compound, the solubility (mole fraction) (in acetonitrile, 300.15 K) was 0.0116, the solubility (mole fraction) (in acetonitrile, 303.15 K) was 0.013 and the solubility (mole fraction) (in acetonitrile, 306.15 K) was 0.0144. The solubility (mole fraction) (in acetonitrile, 309.15 K) was 0.0162, the solubility (mole fraction) (in acetonitrile, 312.15 K) was 0.0181 and the solubility (mole fraction) (in acetonitrile, 315.15 K) was 0.0208. It also gave a solubility (mole fraction) (in acetonitrile, 318.15 K) of 0.0238, a solubility (mole fraction) (in ethanol, 288.15 K) of 0.0989 and a solubility (mole fraction) (in ethanol, 291.15 K) of 0.103. The solubility (mole fraction) (in ethanol, 294.15 K) was 0.107, the solubility (mole fraction) (in ethanol, 297.15 K) was 0.11 and the solubility (mole fraction) (in ethanol, 300.15 K) was 0.114. It also gave a solubility (mole fraction) (in ethanol, 303.15 K) of 0.118, a solubility (mole fraction) (in ethanol, 306.15 K) of 0.123 and a solubility (mole fraction) (in ethanol, 309.15 K) of 0.129. It also gave a solubility (mole fraction) (in ethanol, 312.15 K) of 0.136, a solubility (mole fraction) (in ethanol, 315.15 K) of 0.142 and a solubility (mole fraction) (in ethanol, 318.15 K) of 0.148. For the same compound, the solubility (mole fraction) (in ethyl acetate, 288.15 K) was 0.0498, the solubility (mole fraction) (in ethyl acetate, 291.15 K) was 0.0509 and the solubility (mole fraction) (in ethyl acetate, 294.15 K) was 0.052. For the same compound, the solubility (mole fraction) (in ethyl acetate, 297.15 K) was 0.0533, the solubility (mole fraction) (in ethyl acetate, 300.15 K) was 0.0553 and the solubility (mole fraction) (in ethyl acetate, 303.15 K) was 0.0576. The solubility (mole fraction) (in ethyl acetate, 306.15 K) was 0.0604, the solubility (mole fraction) (in ethyl acetate, 309.15 K) was 0.0637 and the solubility (mole fraction) (in ethyl acetate, 312.15 K) was 0.0667. For the same compound, the solubility (mole fraction) (in ethyl acetate, 315.15 K) was 0.0696, the solubility (mole fraction) (in ethyl acetate, 318.15 K) was 0.0727 and the solubility (mole fraction) (in ethyl formate, 288.15 K) was 0.0113. For the same compound, the solubility (mole fraction) (in ethyl formate, 291.15 K) was 0.0116, the solubility (mole fraction) (in ethyl formate, 294.15 K) was 0.012 and the solubility (mole fraction) (in ethyl formate, 297.15 K) was 0.0127. It also gave a solubility (mole fraction) (in ethyl formate, 300.15 K) of 0.0136, a solubility (mole fraction) (in ethyl formate, 303.15 K) of 0.0146 and a solubility (mole fraction) (in ethyl formate, 306.15 K) of 0.0155. The solubility (mole fraction) (in ethyl formate, 309.15 K) was 0.0166, the solubility (mole fraction) (in ethyl formate, 312.15 K) was 0.0183 and the solubility (mole fraction) (in ethyl formate, 315.15 K) was 0.0202. For the same compound, the solubility (mole fraction) (in ethyl formate, 318.15 K) was 0.0221, the solubility (mole fraction) (in isopropanol, 288.15 K) was 0.063 and the solubility (mole fraction) (in isopropanol, 291.15 K) was 0.0631. It also gave a solubility (mole fraction) (in isopropanol, 294.15 K) of 0.0634, a solubility (mole fraction) (in isopropanol, 297.15 K) of 0.0637 and a solubility (mole fraction) (in isopropanol, 300.15 K) of 0.0651. For the same compound, the solubility (mole fraction) (in isopropanol, 303.15 K) was 0.0665, the solubility (mole fraction) (in isopropanol, 306.15 K) was 0.0687 and the solubility (mole fraction) (in isopropanol, 309.15 K) was 0.0718. For the same compound, the solubility (mole fraction) (in isopropanol, 312.15 K) was 0.077, the solubility (mole fraction) (in isopropanol, 315.15 K) was 0.0829 and the solubility (mole fraction) (in isopropanol, 318.15 K) was 0.0914. It also gave a solubility (mole fraction) (in methanol, 288.15 K) of 0.096, a solubility (mole fraction) (in methanol, 291.15 K) of 0.0983 and a solubility (mole fraction) (in methanol, 294.15 K) of 0.101. For the same compound, the solubility (mole fraction) (in methanol, 297.15 K) was 0.104, the solubility (mole fraction) (in methanol, 300.15 K) was 0.106 and the solubility (mole fraction) (in methanol, 303.15 K) was 0.11. For the same compound, the solubility (mole fraction) (in methanol, 306.15 K) was 0.114, the solubility (mole fraction) (in methanol, 309.15 K) was 0.119 and the solubility (mole fraction) (in methanol, 312.15 K) was 0.123. It also gave a solubility (mole fraction) (in methanol, 315.15 K) of 0.127, a solubility (mole fraction) (in methanol, 318.15 K) of 0.131 and a solubility (mole fraction) (in methyl acetate, 288.15 K) of 0.0453. The solubility (mole fraction) (in methyl acetate, 291.15 K) was 0.0477, the solubility (mole fraction) (in methyl acetate, 294.15 K) was 0.0497 and the solubility (mole fraction) (in methyl acetate, 297.15 K) was 0.0526. For the same compound, the solubility (mole fraction) (in methyl acetate, 300.15 K) was 0.0559, the solubility (mole fraction) (in methyl acetate, 303.15 K) was 0.0594 and the solubility (mole fraction) (in methyl acetate, 306.15 K) was 0.063. The solubility (mole fraction) (in methyl acetate, 309.15 K) was 0.0668, the solubility (mole fraction) (in methyl acetate, 312.15 K) was 0.0713 and the solubility (mole fraction) (in methyl acetate, 315.15 K) was 0.0775. It also gave a solubility (mole fraction) (in methyl acetate, 318.15 K) of 0.085, a solubility (mole fraction) (in n-butanol, 288.15 K) of 0.0712 and a solubility (mole fraction) (in n-butanol, 291.15 K) of 0.0763. It also gave a solubility (mole fraction) (in n-butanol, 294.15 K) of 0.0814, a solubility (mole fraction) (in n-butanol, 297.15 K) of 0.0867 and a solubility (mole fraction) (in n-butanol, 300.15 K) of 0.0919. The solubility (mole fraction) (in n-butanol, 303.15 K) was 0.0971, the solubility (mole fraction) (in n-butanol, 306.15 K) was 0.102 and the solubility (mole fraction) (in n-butanol, 309.15 K) was 0.107. The solubility (mole fraction) (in n-butanol, 312.15 K) was 0.112, the solubility (mole fraction) (in n-butanol, 315.15 K) was 0.116 and the solubility (mole fraction) (in n-butanol, 318.15 K) was 0.12. It also gave a solubility (mole fraction) (in n-butyl acetate, 288.15 K) of 0.0117, a solubility (mole fraction) (in n-butyl acetate, 291.15 K) of 0.0143 and a solubility (mole fraction) (in n-butyl acetate, 294.15 K) of 0.0169. The solubility (mole fraction) (in n-butyl acetate, 297.15 K) was 0.0199, the solubility (mole fraction) (in n-butyl acetate, 300.15 K) was 0.0227 and the solubility (mole fraction) (in n-butyl acetate, 303.15 K) was 0.0258. The solubility (mole fraction) (in n-butyl acetate, 306.15 K) was 0.029, the solubility (mole fraction) (in n-butyl acetate, 309.15 K) was 0.0325 and the solubility (mole fraction) (in n-butyl acetate, 312.15 K) was 0.0356. The solubility (mole fraction) (in n-butyl acetate, 315.15 K) was 0.039, the solubility (mole fraction) (in n-butyl acetate, 318.15 K) was 0.0428 and the solubility (mole fraction) (in n-propanol, 288.15 K) was 0.0352. For the same compound, the solubility (mole fraction) (in n-propanol, 291.15 K) was 0.0384, the solubility (mole fraction) (in n-propanol, 294.15 K) was 0.0416 and the solubility (mole fraction) (in n-propanol, 297.15 K) was 0.046. For the same compound, the solubility (mole fraction) (in n-propanol, 300.15 K) was 0.0502, the solubility (mole fraction) (in n-propanol, 303.15 K) was 0.0541 and the solubility (mole fraction) (in n-propanol, 306.15 K) was 0.0588. The solubility (mole fraction) (in n-propanol, 309.15 K) was 0.0631, the solubility (mole fraction) (in n-propanol, 312.15 K) was 0.0671 and the solubility (mole fraction) (in n-propanol, 315.15 K) was 0.0732. It also gave a solubility (mole fraction) (in n-propanol, 318.15 K) of 0.0803, a solubility (mole fraction) (in n-propyl acetate, 288.15 K) of 0.0291 and a solubility (mole fraction) (in n-propyl acetate, 291.15 K) of 0.0298. The solubility (mole fraction) (in n-propyl acetate, 294.15 K) was 0.0309, the solubility (mole fraction) (in n-propyl acetate, 297.15 K) was 0.032 and the solubility (mole fraction) (in n-propyl acetate, 300.15 K) was 0.0336. For the same compound, the solubility (mole fraction) (in n-propyl acetate, 303.15 K) was 0.0358, the solubility (mole fraction) (in n-propyl acetate, 306.15 K) was 0.0379 and the solubility (mole fraction) (in n-propyl acetate, 309.15 K) was 0.0403. For the same compound, the solubility (mole fraction) (in n-propyl acetate, 312.15 K) was 0.0433, the solubility (mole fraction) (in n-propyl acetate, 315.15 K) was 0.0472 and the solubility (mole fraction) (in n-propyl acetate, 318.15 K) was 0.0507. It also gave a solubility (mole fraction) (in sec-butanol, 288.15 K) of 0.0823, a solubility (mole fraction) (in sec-butanol, 291.15 K) of 0.0876 and a solubility (mole fraction) (in sec-butanol, 294.15 K) of 0.0926. For the same compound, the solubility (mole fraction) (in sec-butanol, 297.15 K) was 0.0978, the solubility (mole fraction) (in sec-butanol, 300.15 K) was 0.103 and the solubility (mole fraction) (in sec-butanol, 303.15 K) was 0.11. The solubility (mole fraction) (in sec-butanol, 306.15 K) was 0.117, the solubility (mole fraction) (in sec-butanol, 309.15 K) was 0.124 and the solubility (mole fraction) (in sec-butanol, 312.15 K) was 0.129. The solubility (mole fraction) (in sec-butanol, 315.15 K) was 0.135 and the solubility (mole fraction) (in sec-butanol, 318.15 K) was 0.14.
